Data published in patent US5385891A, “Polysulfate of β-cyclodextrin derivative and process for preparing the same” (Tanabe Seiyaku Co., Ltd., priority 1991, dated 1995).
Where a name gives a salt, the structure may show the parent alone.

Tested on: HIV in MT-4 cells
Experiment: HIV Proliferation Inhibitory Activity (MT-4 cells, 10% FCS)
Format: cell-based, HIV (a culture supernatant of TALL-1/LAV-1)
Conditions: Human immunodeficiency virus 1, MT4, 120 h, read-out: HIV proliferation inhibitory activity, 100% inhibition concentration
Protocol: It is known that when MT-4 cells which are sustaining infectious cell lines of human T-cell Leukemia virus I type (HTLV-I) are infected with HIV, HIV proliferates rapidly and the MT-4 cells are killed in 5 to 6 days due to the cellular damage. Therefore, HIV proliferation inhibitory activity of a sample can be evaluated by examining the number of viable cells of the MT-4 cells infected with HIV.
MT-4 cells were infected with HIV (a culture supernatant of TALL-1/LAV-1) at 37° C. for one hour so that TCID50 (median tissue culture infectious dose)/cell might be 0.001, followed by washing with the medium. The infected MT-4 cells were then suspended at a concentration of 1×10^5 cell/ml in RPMI-1640 media (containing 10% of FCS (fetal calf serum)) containing samples of various concentrations, respectively. Each of the thus obtained cell suspension was introduced in a flat bottom culture plate in an amount of 200 μl/well and was incubated at 37° C. in the presence of 5% carbon dioxide for 5 days. After incubation, the number of viable cells in the cell suspension was counted by the Tripan-Blue Staining Method. The HIV proliferation inhibitory activity of a sample was evaluated in terms of the concentration of the sample which suppresses by 100% the infectiousness and the cell modification activity of HIV in MT-4 cells.

Row | Structure (SMILES) | IC100
1 | O=S(=O)(O)OC[C@H]1O[C@@H]2O[C@H]3[C@H](OS(=O)(=O)O)[C@@H](OCc4ccccc4)[C@@H](O[C@H]4[C@H](OS(=O)(=O)O)[C@@H](OCc5ccccc5)[C@@H](O[C@H]5[C@H](OS(=O)(=O)O)[C@@H](OCc6ccccc6)[C@@H](O[C@H]6[C@H](OS(=O)(=O)O)[C@@H](OCc7ccccc7)[C@@H](O[C@H]7[C@H](OS(=O)(=O)O)[C@@H](OCc8ccccc8)[C@@H](O[C@H]8[C@H](OS(=O)(=O)O)[C@@H](OCc9ccccc9)[C@@H](O[C@H]1[C@H](OS(=O)(=O)O)[C@H]2OCc1ccccc1)O[C@@H]8COS(=O)(=O)O)O[C@@H]7COS(=O)(=O)O)O[C@@H]6COS(=O)(=O)O)O[C@@H]5COS(=O)(=O)O)O[C@@H]4COS(=O)(=O)O)O[C@@H]3COS(=O)(=O)O [Example 1, sodium salt of heptakis(2-O-benzyl)-β-cyclodextrin polysulfate] | 0.98 µg/mL
2 | O=S(=O)(O)OC[C@H]1O[C@@H]2O[C@H]3[C@H](OS(=O)(=O)O)[C@@H](OCc4ccc(F)cc4)[C@@H](O[C@H]4[C@H](OS(=O)(=O)O)[C@@H](OCc5ccc(F)cc5)[C@@H](O[C@H]5[C@H](OS(=O)(=O)O)[C@@H](OCc6ccc(F)cc6)[C@@H](O[C@H]6[C@H](OS(=O)(=O)O)[C@@H](OCc7ccc(F)cc7)[C@@H](O[C@H]7[C@H](OS(=O)(=O)O)[C@@H](OCc8ccc(F)cc8)[C@@H](O[C@H]8[C@H](OS(=O)(=O)O)[C@@H](OCc9ccc(F)cc9)[C@@H](O[C@H]1[C@H](OS(=O)(=O)O)[C@H]2OCc1ccc(F)cc1)O[C@@H]8COS(=O)(=O)O)O[C@@H]7COS(=O)(=O)O)O[C@@H]6COS(=O)(=O)O)O[C@@H]5COS(=O)(=O)O)O[C@@H]4COS(=O)(=O)O)O[C@@H]3COS(=O)(=O)O [Example 6] | 3.9 µg/mL
